Experimental data published in ChEMBL document CHEMBL1131935, “Novel cytokine release inhibitors. Part IV: analogs of podocarpic acid” (Bioorg Med Chem Lett, 1999).

How the values were obtained:
[1] = species: Homo sapiens; assay: Inhibition of IL1-beta release stimulated with LPS in human monocytes; assay type: functional
[2] = species: Homo sapiens; assay: Compound tested for the inhibition of IL1-beta release stimulated with LPS in human monocytes was determined at a concentration of 1 uM; assay type: functional

| SMILES | IC50 [1] [nM] | inhibition at 1 µM [2] [%] |
| --- | --- | --- |
| COC(=O)c1cc2c(cc1OC)[C@@]1(C)CCC[C@](C)(C(=O)OC)[C@@H]1C(=O)C2 | 260 |  |
| COC(=O)c1cc2c(cc1C(=O)OC)[C@@]1(C)CCC[C@](C)(C(=O)OC)C1CC2=O (stereo partly drawn) | 1000 |  |
| COC(=O)c1cc2c(cc1NS(C)(=O)=O)C=C[C@H]1[C@@](C)(C(=O)OC)CCC[C@]21C | 100 |  |
| COC(=O)c1cc2c(c(C)c1C(=O)OC)C(C)=CC1[C@@](C)(C(=O)OC)CCC[C@]21C (stereo partly drawn) | 200 |  |
| COC(=O)[C@@]1(C)CCC[C@]2(C)c3cc(O)c(O)cc3C=CC12 (stereo partly drawn) | 100 |  |
| COC(=O)[C@@]1(C)CCC[C@]2(C)c3cc(O)c(O)cc3CCC12 (stereo partly drawn) |  | 42 |
| COC(=O)c1cc2c(c(Br)c1C(=O)OC)CCC1[C@@](C)(C(=O)OC)CCC[C@]21C (stereo partly drawn) | 400 |  |
| COC(=O)c1cc2c(cc1C(=O)OC)[C@@]1(C)CCC[C@](C)(C(=O)O)C1C=C2 (stereo partly drawn) | 110 |  |
| CCCc1c2c(cc(C(=O)OC)c1C(=O)OC)[C@@]1(C)CCC[C@](C)(C(=O)OC)C1C=C2 (stereo partly drawn) | 110 |  |
| COC(=O)[C@@]1(C)CCC[C@]2(C)c3cc(OC)c(O)cc3C=C[C@@H]12 | 100 |  |
| COC(=O)[C@@]1(C)CCC[C@]2(C)c3cc(O)c(C(C)C)cc3C=C[C@@H]12 |  | 38 |
| COc1cc2c(c(C)c1O)C=C[C@H]1[C@@](C)(C(=O)O)CCC[C@]21C | 100 |  |
| CCCc1c2c(cc(OC)c1C(=O)OC)[C@@]1(C)CCC[C@](C)(C(=O)OC)[C@@H]1C=C2 | 300 |  |
| CCCc1c(C(=O)OC)c(C(=O)OC)cc2c1C(=O)CC1[C@@](C)(C(=O)OC)CCC[C@]21C (stereo partly drawn) | 800 |  |
| COC(=O)[C@@]1(C)CCC[C@]2(C)c3cc(C(=O)OC(C)(C)C)c(C(=O)OC(C)(C)C)cc3C=CC12 (stereo partly drawn) | 540 |  |
| CCOC(=O)CCCNC(=O)[C@@]1(C)CCC[C@]2(C)c3cc(C(=O)OC)c(C(=O)OC)cc3C=CC12 (stereo partly drawn) | 150 |  |
| COC(=O)[C@@]1(C)CCC[C@]2(C)c3cc(O)ccc3CCC12 (stereo partly drawn) |  | 15 |

| SMILES | IC50 [1] [nM] | inhibition at 1 µM [2] [%] |
| --- | --- | --- |
| COC(=O)Cc1cc2c(cc1C(=O)OC)[C@@]1(C)CCC[C@](C)(C(=O)OC)[C@@H]1C=C2 | 400 |  |
| CCCc1c2c(cc(C(=O)OC)c1C(=O)OC)[C@@]1(C)CCC[C@](C)(C(=O)OC)C1CC2 (stereo partly drawn) | 300 |  |
| COC(=O)[C@@]1(C)CCC[C@]2(C)c3cc(C(=O)OC(C)C)c(C(=O)OC(C)C)cc3C=CC12 (stereo partly drawn) | 110 |  |
| COC(=O)c1cc2c(cc1OC)C=C[C@H]1[C@@](C)(C(=O)OC)CCC[C@]21C | 100 |  |
| COC(=O)c1cc2c(cc1OC)[C@@]1(C)CCC[C@](C)(C(=O)OC)[C@@H]1C=C2 | 160 |  |
| C=CCc1c2c(cc(C(=O)OC)c1C(=O)OC)[C@@]1(C)CCC[C@](C)(C(=O)OC)C1CC2 (stereo partly drawn) | 200 |  |
| COC(=O)c1cc2c(c(C(C)=O)c1C(=O)OC)CCC1[C@@](C)(C(=O)OC)CCC[C@]21C (stereo partly drawn) | 110 |  |
| COC(=O)c1cc2c(cc1C(=O)OC)[C@@]1(C)CCC[C@](C)(C(=O)N3CCOCC3)C1C=C2 (stereo partly drawn) | 110 |  |
| COC(=O)C[C@@]1(C)CCC[C@]2(C)c3cc(C(=O)OC)c(C(=O)OC)cc3C=CC12 (stereo partly drawn) | 160 |  |
| COC(=O)c1cc2c(cc1C(=O)OC)[C@@]1(C)CCC[C@](C)(C(=O)OC)C1C=C2 (stereo partly drawn) | 100 |  |
| COC(=O)[C@@]1(C)CCC[C@]2(C)c3cc(O)c(N)cc3C=C[C@@H]12 | 150 |  |
| COC(=O)c1cc2c(cc1Br)C=C[C@H]1[C@@](C)(C(=O)OC)CCC[C@]21C | 800 |  |
| COC(=O)[C@@]1(C)CCC[C@]2(C)c3cc(O)c(OC)cc3C=C[C@@H]12 | 100 |  |
| COC(=O)[C@@]1(C)CCC[C@]2(C)c3cc(OC)c(O)cc3CC[C@@H]12 | 1400 |  |
| COC(=O)c1cc2c(c(C)c1C(=O)OC)C=CC1[C@@](C)(C(=O)OC)CCC[C@]21C (stereo partly drawn) | 140 |  |
| COC(=O)[C@@]1(C)CCC[C@]2(C)c3cc(O)c([N+](=O)[O-])cc3C=C[C@@H]12 |  | 5 |
